Test systems include SK-OV-3 ovarian; KM20L2 colon; SW-620 colon; SK-MEL-2 melanoma; T-47D breast; BT-549 breast; M19-MEL melanoma; RPMI-8226 leukemia; SNB-75 CNS; A498 renal.
Assay in all cases: NCI tumour cell line growth inhibition, 48 h

This is an account of results in PubChem BioAssay (NCI).

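Exposure lasted 48 hours, with cells grown in 96-well plates and compounds tested at five concentrations. GI50 = concentration required for 50% inhibition of growth. TGI denotes the concentration required for complete inhibition of growth.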

For the compound `N#CC1(C2SCCS2=O)C2=C(C(=O)c3ccccc3C2=O)N2CCCC21` (configuration not stated), the TGI in the assay with SK-OV-3 ovarian was 51.7 µM; with KM20L2 colon, 19.3 µM; with SW-620 colon, 6.41 µM; in the assay with SK-MEL-2 melanoma, 4.12 µM; in the assay with T-47D breast it was 8.16 µM; with BT-549 breast, 4.3 µM. In addition, the TGI came out at 0.788 µM with M19-MEL melanoma, 9.91 µM in the assay with RPMI-8226 leukemia, 8.04 µM in the assay on SNB-75 CNS and 13 µM with A498 renal.

With `O=C(CN1CCCCC1)N1CCc2c([nH]c3ccccc23)C1c1cccnc1` (configuration not stated), the TGI in the assay on SK-OV-3 ovarian, in the assay with KM20L2 colon, in the assay with SW-620 colon, in the assay with M19-MEL melanoma, with RPMI-8226 leukemia and with SNB-75 CNS was over 100 µM each time. In the assay on A498 renal, this compound registered a TGI of over 100 µM.

`N#CC(C(=O)/C(=N/Nc1nc(=S)[nH]n1N)C(C#N)c1ccccc1)c1ccccc1` (configuration not stated): the TGI in the assay with SK-OV-3 ovarian, in the assay with KM20L2 colon, in the assay with SW-620 colon, in the assay on SK-MEL-2 melanoma, with T-47D breast and with BT-549 breast was over 100 µM throughout. In addition, the TGI with M19-MEL melanoma, in the assay with RPMI-8226 leukemia, in the assay with SNB-75 CNS and in the assay with A498 renal was over 100 µM in each case.

For the compound `CN=NN(C)C(=O)NC`, the TGI in the assay on SK-OV-3 ovarian, in the assay on KM20L2 colon, with SW-620 colon, in the assay with SK-MEL-2 melanoma, with M19-MEL melanoma and in the assay on RPMI-8226 leukemia was over 100 µM in each case. The TGI in the assay with SNB-75 CNS and in the assay with A498 renal was over 100 µM in each case.

In the case of `CCOC(=O)C1N(S(=O)(=O)c2ccc(C)cc2)CCC12C(c1ccc(OC)cc1)NC1CCCCC12` (configuration not stated), the TGI is over 100 µM in the assay on SK-OV-3 ovarian; over 100 µM with KM20L2 colon; over 100 µM in the assay on SW-620 colon; over 100 µM in the assay on M19-MEL melanoma; over 100 µM with RPMI-8226 leukemia; 77.8 µM with SNB-75 CNS. Moreover, in the assay with A498 renal, the TGI is over 100 µM.

As to `CC(=O)OCC1OC([S-])C(OC(C)=O)C(OC(C)=O)C1OC(C)=O.CC[PH+](CC)CC.CC[PH+](CC)CC.[Au].[Au]` (configuration not stated), the GI50 was 1680 nM in the assay with SK-OV-3 ovarian; 792 nM with KM20L2 colon; 199 nM in the assay with SW-620 colon; 187 nM with SK-MEL-2 melanoma; 138 nM with RPMI-8226 leukemia; 249 nM with SNB-75 CNS. Further, the TGI with SK-OV-3 ovarian was determined as 3.05 µM; in the assay with KM20L2 colon, 2.2 µM; with SW-620 colon, 0.493 µM; in the assay on SK-MEL-2 melanoma it was 0.49 µM; with M19-MEL melanoma it was 0.806 µM; in the assay on RPMI-8226 leukemia it was 0.761 µM. In the assay with SNB-75 CNS, this compound had a TGI of 1.16 µM.

As for `COc1ccccc1NC(=O)C1=C(C)NC(C)=C(C(=O)Nc2ccccc2OC)C1c1ccc([N+](=O)[O-])cc1`, the TGI in the assay with SK-OV-3 ovarian, in the assay with KM20L2 colon, in the assay with SW-620 colon, in the assay on SK-MEL-2 melanoma, in the assay with RPMI-8226 leukemia and with SNB-75 CNS was over 100 µM in each case. For the same compound, the TGI with A498 renal was over 100 µM.

As for `O=C(/C=C/c1ccccc1)/C=C/c1ccccc1`, the TGI is over 100 µM in the assay on SK-OV-3 ovarian; 52.5 µM in the assay on KM20L2 colon; 40.8 µM with SW-620 colon; over 100 µM in the assay with SK-MEL-2 melanoma; 50.2 µM in the assay on M19-MEL melanoma; over 100 µM with RPMI-8226 leukemia. Also, the TGI in the assay on SNB-75 CNS and with A498 renal was over 100 µM in each case.

As to `O=C1CSC(Cc2nc3ccccc3[nH]2)=N1`, the TGI was 51.3 µM with SK-OV-3 ovarian; 33.3 µM in the assay on KM20L2 colon; over 100 µM in the assay on SW-620 colon; 38.4 µM in the assay on SK-MEL-2 melanoma; over 59 µM in the assay with M19-MEL melanoma; over 100 µM with RPMI-8226 leukemia. Further, the values for the TGI in the assay with SNB-75 CNS and in the assay on A498 renal were 27.4 µM and 10.4 µM, respectively.

In the case of `CC1=C(C(=O)Nc2c(C)cccc2C)C(c2ccccc2Cl)C(C(=O)Nc2c(C)cccc2C)=C(C)N1`, the TGI in the assay on SK-OV-3 ovarian, in the assay on KM20L2 colon, in the assay with SW-620 colon, with SK-MEL-2 melanoma, with M19-MEL melanoma and in the assay with RPMI-8226 leukemia was over 100 µM in each case. Besides, the TGI with SNB-75 CNS and in the assay on A498 renal was over 100 µM each time.

For `O=S(O)CCCCSSCc1ccccc1CSSCCCCS(=O)O`, the TGI is over 100 µM in the assay on SK-OV-3 ovarian; over 100 µM in the assay with KM20L2 colon; 89.5 µM in the assay on SW-620 colon; over 100 µM in the assay on SK-MEL-2 melanoma; 21.2 µM in the assay on M19-MEL melanoma; 45.8 µM in the assay with RPMI-8226 leukemia. Moreover, the TGI with SNB-75 CNS and with A498 renal was over 100 µM each time.

For the compound `CC(C)(C)N1CC2(CCCCC2)C1=O`, the TGI in the assay on SK-OV-3 ovarian, in the assay on KM20L2 colon, in the assay with SW-620 colon, with SK-MEL-2 melanoma, in the assay on M19-MEL melanoma and with RPMI-8226 leukemia was over 100 µM in each case. Further, the TGI in the assay on SNB-75 CNS and with A498 renal was over 100 µM throughout.

As to `Cc1cc(C)n(CCNCCn2nc(C)cc2C)n1`, the TGI was over 100 µM in the assay with SK-OV-3 ovarian; over 100 µM in the assay on KM20L2 colon; over 100 µM in the assay with SW-620 colon; over 1 µM with SK-MEL-2 melanoma; over 100 µM in the assay with M19-MEL melanoma; over 100 µM with RPMI-8226 leukemia. Besides, the TGI in the assay on SNB-75 CNS and in the assay on A498 renal was over 100 µM throughout.

For `CCOC(=O)[C@H](CCCNC(=O)OC(C)(C)C)NCc1ccc(OC)c(OC)c1`, the TGI with SK-OV-3 ovarian, in the assay on KM20L2 colon, in the assay on SW-620 colon, in the assay with SK-MEL-2 melanoma, in the assay with M19-MEL melanoma and in the assay on SNB-75 CNS was over 100 µM throughout. The compound also registered a TGI with A498 renal of over 100 µM.

In the case of `CCOC(=O)c1[nH]c(COC(C)=O)c(CCCOC(C)=O)c1CCCOC(C)=O`, the TGI in the assay with SK-OV-3 ovarian, in the assay with KM20L2 colon, in the assay on SW-620 colon, in the assay with SK-MEL-2 melanoma and with A498 renal was over 100 µM each time.

On to `COC(=O)/C=C/C1C(C(=O)OC)C2(C(=O)OC)CCC1(C(=O)OC)N2` (configuration not stated), for which the TGI in the assay on SK-OV-3 ovarian, in the assay with KM20L2 colon, in the assay on SW-620 colon, in the assay with SK-MEL-2 melanoma, in the assay on M19-MEL melanoma and in the assay on RPMI-8226 leukemia was over 100 µM in each case. The TGI with SNB-75 CNS and in the assay with A498 renal was over 100 µM throughout.

For the compound `O=C(CCC/C(CC(=O)c1ccc(Br)cc1)=N\O)Nc1ccccc1`, the TGI in the assay on KM20L2 colon, in the assay with SW-620 colon, with SK-MEL-2 melanoma, in the assay with M19-MEL melanoma, in the assay on RPMI-8226 leukemia and in the assay with SNB-75 CNS was over 100 µM in each case.

Turning to `CCOC(=O)CCc1c(C)c2c(OC(C)=O)cc(OC(C)=O)cc2oc1=O`, the TGI with KM20L2 colon was over 100 µM; in the assay on SW-620 colon it was over 100 µM; in the assay on SK-MEL-2 melanoma it was 82.2 µM; in the assay on M19-MEL melanoma it was over 100 µM; in the assay with SNB-75 CNS, over 100 µM.

Regarding `N#CC(/C(=N/NC(=O)C(=O)NN)C(=O)NC12CC3CC(CC(C3)C1)C2)c1ccccc1` (configuration not stated), the TGI in the assay with SK-OV-3 ovarian, in the assay with KM20L2 colon, in the assay on SW-620 colon, with SK-MEL-2 melanoma, in the assay on M19-MEL melanoma and with RPMI-8226 leukemia was over 100 µM each time. Besides, the TGI with SNB-75 CNS and in the assay with A498 renal was over 100 µM each time.

Take `O=C(/C=C/c1c(O)ccc2ccccc12)c1ccc2ccccc2c1`: the TGI with SK-OV-3 ovarian is over 100 µM; in the assay on KM20L2 colon it was over 100 µM; with SW-620 colon, over 100 µM; with SK-MEL-2 melanoma it was over 100 µM; in the assay with M19-MEL melanoma it was 35.9 µM; in the assay on RPMI-8226 leukemia, over 100 µM. Besides, the TGI in the assay on SNB-75 CNS and in the assay on A498 renal was over 100 µM throughout.
